Like-named read-outs stand apart in the source and are kept apart here.

The test system of data set [1] is MC38 cells. Nature of the data set: Ferro-Orange staining of cellular ferrous iron. It counts as cell-based, murine. The following applies: FIG. S6D. The method, then:
Cells (2×10^5 cells/well) were plated into 24 well plates. After seeding, pre-warmed DMEM containing 0.5 μM ferroOrange (dojindo, Rockville, MD), was incubated at 37° C. for 30 min. After incubation, the cell images were taken. Representative images were taken using the RFP channel of an Invitrogen™ EVOS™ FL Auto Imaging System (Thermo Fisher Scientific, Waltham, MA). Fluorescence intensity was quantified using a SpectraMax M2 Microplate Reader (Molecular Devices, Radnor, PA) at excitation 543 nm and emission 580 nm. The intensity was normalized with protein concentrations.

Data set [2] has as its system HCT116, SW480 or RKO cancer cells. In words: Immunoblotting analysis in human colon-derived cancer cells. It counts as cell-based. How it is done:
(§1) Human HCT116, RKO, SW480, HEK293T and murine MC38 CRC cells were maintained at 37° C. in 5% CO2 and cultured in Dulbecco's modified Eagle medium (DMEM) supplemented with 10% fetal bovine serum (FBS) and 1% penicillin and streptomycin (VWR, Radnor, PA). HCT116 p53+/+ and p53−/− cells were a kind gift from Professor Bert Vogelstein at the Johns Hopkins University. For generating stable cell lines, MC38 cells were transfected with a mouse shTFRC plasmid (TRCN0000375695, Sigma, St. Louis, MO) or a mouse shPOLD1 plasmid (TRCN0000428858, Sigma), RKO cells were transfected with a human shPOLD1 plasmid (TRCN0000007924, Sigma) and selected with 1 μg/ml puromycin.
Cells and tumor tissues were lysed with radioimmunoprecipitation assay buffer. After incubation, cell extracts were centrifuged and the supernatant was collected for Bradford assay to quantify protein concentration by a BioTek Synergy HTX Multi-Mode Microplate Reader (BioTek, Winooski, VT). Equal amounts (20-50 μg) of protein were loaded for sodium dodecyl sulfate polyacrylamide gel electrophoresis (SDS-PAGE). The proteins inside the gels were transferred onto nitrocellulose membrane with a wet transfer method. The membranes were blocked with 3% milk for 1 hour. Primary antibodies were incubated overnight. Secondary antibodies were incubated for 1 hour. Antibodies for ferritin heavy chain (FTH1, #3998), IRP2 (#37135), active beta catenin (#8814), Anti-rabbit IgG HRP-linked Antibody (#7074) and Anti-mouse IgG HRP-linked Antibody (#7076) were from Cell signaling Technology (Danvers, MA). Primary antibodies for TFRC (sc-393719), HIF-1α, (sc-13515), HIF-2a (sc-13596), pS6 (sc-514033), pS6K (sc-8418), RRM2 (sc-398294), p-p53 (sc-377567), p53 (sc-6243), c-MYC (sc-40), GAPDH (sc-47724), Cyclin D1 (sc-718) and Actin (sc-8432) were from Santa Cruz Biotechnology (Dallas, TX). p-RPA2 (PA5-39809) was from Invitrogen (Carlsbad, CA). POLD1 (15646-1-AP), p-CHK1 (28805-1-AP), E2F1 (66515-1-Ig), Axin2 (20540-1-AP) and TNKS (18030-1-AP) were from Proteintech (Rosemont, IL).
A general note: Immunoblotting shows a protein as a band on a membrane.

The subject of data set [3] is patient-derived tumor colonoids. Nature of the data set: RNA-seq analysis of patient-derived tumor colonoids treated with DFO. It counts as cell-based, human. The following applies: DFO 100 μM in KGMG medium, 4 days. The method, then: The adenoma colonoids culture was described previously. See Xue, et al., Cell Metab, 2016; 24: pp. 447-461). The culture plates were placed in a 37° C. incubator for 30 min to solidify the Matrigel, followed by the addition of 1 mL serum-free Keratinocyte Growth Media Gold (KGMG, Catalogue: 00195769, Lonza, Basel, Switzerland). After 24 hours of plating, colonoids were treated with DFO (0 or 100 μM) in KGMG for 4 days with fresh media change every other day. At the end of the experiment, culture media was aspirated off, and colonoids were lysed with Trizol to extract RNA.
RNA sequencing libraries were prepared using the TruSeq RNA library prep kit v2 (Illumina) following the manufacturer's recommended protocol. The libraries were sequenced using single-end 50-cycle reads on a HiSeq 4000 sequencer (Illumina) at the University of Michigan DNA Sequencing Core Facility. Raw sequencing read quality was assessed utilizing FastQC. Reads were aligned to the reference human transcriptome (UCSC) using STAR 2.5.2a. Default parameters were used for the alignment, with the exception of “--outFilterMultimapNmax 10” and “--sjdbScore 2”. Expression quantification and differential expression analysis between DFO and control tumor colonoids were conducted using CuffDiff v 2.1.1 using default settings. […]

The conditions of data set [4]: mice; cited from earlier work.
The conditions of data set [5]: cited from earlier work.
Data set [6] has as its system advanced hepatocellular carcinoma. The following applies: cohort of 10 advanced hepatocellular carcinoma; cited from earlier work.
Another data set relates to SW480 cells. Nature of the data set: MTT assay in SW480 cells. The following applies: 48 hours. It counts as cell-based, human. How it is done: as §1
(§2) Cells were plated at a concentration of 5×10^4 cells/mL in a 24 well plates. 125 μL 5 mg/mL MTT (Sigma, MO) was added to each plate and incubated for 30 min. Dimethyl sulfoxide (DMSO) was added and absorbance was measured at 570 nm using a BioTek Synergy HTX Multi-Mode Microplate Reader.
On the technique in general: Tetrazolium assays rely on reduction of a dye to a coloured formazan, in cell work by metabolically active cells.

The next data set has as its system cancer cells. The following applies: cited from earlier work.
Data set [7] has as its system MC38 cells. Nature of the data set: MTT assay in MC38 cells. In kind it is cell-based, murine. The following applies: MC38, 10 μM DFX and/or 10 μM 5-FU, 48 hours, FIG. 7P. The method, then:
as §1, §2

In data set [8] the test system is xenografts from MC38 cells. In words: Subcutaneous MC38 xenograft combination therapy in C57BL/6 mice. It counts as in vivo. The following applies: 20 mg/kg DFX every other day, 1 mg/kg 5-FU daily, or combination, FIG. 7R.
Experimental: For subcutaneous xenograft study, 1×10^6 syngeneic MC38 cells with Tfrc or Pold1 knockdown were injected into the flanks of C57BL/6 mice. Two weeks later, mice were sacrificed and tumors were collected. For combination therapy, when tumors are palpable at one week after subcutaneous injection of MC38 cells, C57BL/6 mice were treated with vehicle, 20 mg/kg DFX for every other day, 1 mg/kg 5-fluorouracil (5-FU) daily, or the combination of DFX and 5-FU.
Data set [9] concerns MC38 cells. In words: Immunoblotting analysis in MC38 cells. In kind it is cell-based, murine. The following applies: MC38, 10 μM DFX and/or 10 μM 5-FU, 48 hours, FIG. 7Q. How it is done:
as §1
Cells and tumor tissues were lysed with radioimmunoprecipitation assay buffer. After incubation, cell extracts were centrifuged and the supernatant was collected for Bradford assay to quantify protein concentration by a BioTek Synergy HTX Multi-Mode Microplate Reader (BioTek, Winooski, VT). Equal amounts (20-50 μg) of protein were loaded for sodium dodecyl sulfate polyacrylamide gel electrophoresis (SDS-PAGE). The proteins inside the gels were transferred onto nitrocellulose membrane with a wet transfer method. The membranes were blocked with 3% milk for 1 hour. Primary antibodies were incubated overnight. Secondary antibodies were incubated for 1 hour. […]

The test system of the next data set is B-family DNA polymerases. The following applies: aphidicolin combined with CHK1 inhibitors; cited from earlier work.
For data set [10] the following is noted: humans; cited from earlier work.

For the compound ferrous sulfate [FS], in the data set with MC38 cells [1], the “orange fluorescence signal (cellular ferrous iron)” value is listed as “greatly increased”. Besides, in data set [2] (HCT116 cells, 100 μM DFO and different doses of FS, FIG. 5E), the “rescue of DFO-decreased POLD1” value is listed as “can rescue”.
In the case of `CC(=O)N(O)CCCCCNC(=O)CCC(=O)N(O)CCCCCNC(=O)CCC(=O)N(O)CCCCCN` [DFO, deferoxamine], the “decrease of POLD1 gene expression (RNA-seq)” value in [3] was found to be 4.31 fold. The “decrease of RRM2 gene expression (RNA-seq)” value in data set [3] is 3.28 fold. The circulation half-life is approximately 5 min in data set [4], “approximately 20 min” in data set [5] (humans) and “extremely short” in data set [5] (in vivo). The severe adverse events entry in data set [6] is on record as “without severe adverse events”.
For `CNCc1ccc(-c2cc(-c3nc(-c4ccc(S(=O)(=O)C(C)C)cc4)cnc3N)on2)cc1` [VE-822], in the data set with SW480 cells (SW480 and MC38 cells, 10 μM DFX, 10 uM VE-822 or 100 nM Prexasertib, FIG. S7G, S7H), the “synergistic effect on cell growth (MTT)” value is listed as “synergistic effect was further validated”.
Consider `COc1cccc(OCCCN)c1-c1cc(Nc2cnc(C#N)cn2)n[nH]1` [Prexasertib], for which, in the data set on SW480 cells (SW480, 10 μM DFO and/or 100 nM Prexasertib, FIG. S7F), the “synergistic effect on cell growth (MTT)” value is listed as “synergistic effect was further validated”.
Regarding `CCc1ccc(/C=C2/SC(=S)NC2=O)cc1` [10058-F4], the “E2F1 and POLD1 protein” value in data set [2] (SW480 cells, c-Myc inhibitor overnight, FIG. S5G) is given as “reduced”.
For `c1ccc(CNC2CC(NCc3ccccn3)CC(NCc3ccccn3)C2)nc1` (stereo not drawn) [tachpyridine, N,N′,N″-tris(2-pyridylmethyl)-cis,cis-1,3,5-triaminocyclohexane], the “sensitivity to ionizing radiation induced DNA damage” value in the data set with cancer cells (cancer cells (not noncancer cells)) is “sensitizes cancer cells”. Besides, in the data set with cancer cells (via ATR-dependent activation of CHK1), the cell cycle result is “induces G2 cell cycle arrest”.
On to `O=c1[nH]cc(F)c(=O)[nH]1` [5-FU, 5-fluorouracil], for which, in the data set with MC38 cells [7], the “growth suppressive effect of DFX in vitro (MTT)” value is “potentiated”. Besides, the “growth suppressive effect of DFX in vivo (tumor weight)” value in data set [8] is given as “potentiated”. Also, the “DDR of DFX (immunoblotting)” value in the data set on MC38 cells [9] was “potentiated”.
For `Oc1nc(-c2ccc(C(F)(F)F)cc2)nc2c1CSCC2` [XAV939], the “suppressive effect of DFO on c-Myc, E2F1, POLD1 and Cyclin D1” value in [2] (SW480 cells, DFO and/or XAV939, FIG. 5N) is on record as “potentiated”. Also, the “expression of TNKS and Axin2” value in data set [2] (SW480 cells, FIG. 5N) was “increased”. Further, in data set [2] (SW480 cells, FS and/or XAV939, FIG. 5O), the “iron-repressed Axin2” value is “rescued”. Besides, the “c-Myc, E2F1, POLD1 and Cyclin D1 protein” value in [2] (SW480 cells, even with iron supplementation, FIG. 5O) is reported as “suppressed”.
For `C[C@@]1(CO)[C@H](O)CC[C@@]2(C)[C@H]1CC[C@H]1C[C@@H]3C[C@@]12CC[C@]3(O)CO` [aphidicolin], the cancer cell proliferation entry in the data set with B-family DNA polymerases is on record as “synergistic inhibition”. In addition, the toxicity result in [10] is on record as “too toxic to be used in humans”.
